Data taken from patent US20040235855A1, “Phospholipase C inhibitors for use in treating inflammatory disorders” (priority 2003, published 2004).

target: T1, human PLC-β2 (Homo sapiens, UniProt Q00722); test: PLC assay using FlashPlates (96-well, immobilized [3H]PIP2 substrate); type: biochemical; details: purified recombinant human PLC-β2 or cytosolic human PLC-β2; hydrolysis of [3H]PIP2
T1 construct: made in house; host or cells: Sf9 cells (Spodoptera frugiperda), recombinant baculovirus
Text: The hydrolysis of phosphatidylinositol-4,5-bisphosphate (PIP2) by a specific phospholipase C-β2 (PLC-β2) produces two intracellular messengers, diacylglycerol (DAG) and inositol 1,4,5-trisphosphate (IP3), which mediate the activation of protein kinase C and intracellular Ca^2+ release. A conventional organic solvent extraction method is widely used for PLC assays to isolate IP3 from the substrate PIP2. The conventional PLC-β2 assay, however is terminated by addition of acidified organic solvents and subsequent extraction and phase separation. […] Accordingly, a preferred method to test the compounds of the present invention, was developed utilizing a 96-well plate assay for PLC-β2 using immobilized radiolabeled substrate to quantitatively measure the reduction in the substrate level without a need for organic solvent extraction. The automated PLC-β2 assay described herein provides a convenient method for quantitative measurement of phospholipase C activities in a high throughput fashion. Ninety-six well Phospholipid FlashPlates were coated with 0.2 mL of 50 mM Tris/HCl (pH 7.4), 0.01% Ac-BSA and 50,000 cpm of […] (phosphatidylinositol-4,5-bisphosphate) at 4° C. for 72 h. The wells were aspirated and washed twice with PBS. The reactions were conducted directly in the wells in PLC reaction buffer containing 50 mM Tris/HCl (pH 7.2), 2.75 mM EDTA (pH 7.3), 80 mM KCl, 10 mM LiCl, 0.04% DOC and 2 mM CaCl2 in the absence or presence of the purified recombinant human PLC-β2 (prepared as described hereafter) or cytosolic human PLC-β2 from […]. Reduction of radioactivity was monitored by a Packard TopCount instrument (Packard Instrument Company, Conn., USA). […] The cells were grown in Grace's media supplemented with 10% (v/v) fetal bovine serum, 3.3 g/l yeastolate, 3.3 g/l lactalbumin hydrosylate, glutamine (6.4 mM final), 50 μg/ml gentamicin, and 50 μg/ml kanamycin. Suspension of Sf9 cells (1.0×10^6 cells/ml) were infected with 5 pfu/cell of recombinant baculovirus encoding PLC-β2 and incubated at 27° C. for 72 h. The cells were collected by centrifugation (500×g, 7 min, 4° C.) and disrupted by hypotonic lysis buffer containing 20 mM Tris/HCl, pH 7.4, 5 mM MgCl2, 2 mM EGTA, 200 μM PMSF, 200 μM benzamidine and 1 μM pepstatin A. The lysate was sonicated on ice and the nuclei and unbroken cells removed by centrifigation (500×g, 5 min, 4C.). The supernatant was recovered and clarified by centrifugation (34,000 rpm, 60 min, 4C.). The supernatant was used as a crude cytosolic fraction (Paterson, A., Boyer, J. L., Watts, V. J., Morris, A. J., Price, […]. (1995) Concentration of enzyme-dependent activation of PLC β1 and PLC β2 by Gα11 and βγ subunits. Cellular Signalling 7, 709-720). Crude cytosol prepared from Sf9 cells expressing PLC-β2 was purified initially by chromatography on a 10 ml column of Q-Sepharose FF, equilibrated in buffer A (25 mM HEPES, pH 7.2,2 mM DTT, 2 mM EDTA, 2 mM EGTA, 200 μM PMSF, 200 μM benzamidine, 1 μM pepstatin A containing 10 mM NaCl). The column was washed with 20 ml of equilibration buffer and eluted with a 200-ml gradient of 110-410 mM NaCl in buffer A. The fractions containing PLC activity were pooled and diluted with buffer A. The diluted enzyme was applied to a 4 ml column of heparin-SepharoseCL-6B equilibrated in buffer A and the column washed with 70 ml of buffer A. The column was eluted with 80 ml of gradient of 0-1.0 M NaCl in buffer A, the column eluate collected in 3 ml fractions. […]

T1 sequence (Q00722 whole entry): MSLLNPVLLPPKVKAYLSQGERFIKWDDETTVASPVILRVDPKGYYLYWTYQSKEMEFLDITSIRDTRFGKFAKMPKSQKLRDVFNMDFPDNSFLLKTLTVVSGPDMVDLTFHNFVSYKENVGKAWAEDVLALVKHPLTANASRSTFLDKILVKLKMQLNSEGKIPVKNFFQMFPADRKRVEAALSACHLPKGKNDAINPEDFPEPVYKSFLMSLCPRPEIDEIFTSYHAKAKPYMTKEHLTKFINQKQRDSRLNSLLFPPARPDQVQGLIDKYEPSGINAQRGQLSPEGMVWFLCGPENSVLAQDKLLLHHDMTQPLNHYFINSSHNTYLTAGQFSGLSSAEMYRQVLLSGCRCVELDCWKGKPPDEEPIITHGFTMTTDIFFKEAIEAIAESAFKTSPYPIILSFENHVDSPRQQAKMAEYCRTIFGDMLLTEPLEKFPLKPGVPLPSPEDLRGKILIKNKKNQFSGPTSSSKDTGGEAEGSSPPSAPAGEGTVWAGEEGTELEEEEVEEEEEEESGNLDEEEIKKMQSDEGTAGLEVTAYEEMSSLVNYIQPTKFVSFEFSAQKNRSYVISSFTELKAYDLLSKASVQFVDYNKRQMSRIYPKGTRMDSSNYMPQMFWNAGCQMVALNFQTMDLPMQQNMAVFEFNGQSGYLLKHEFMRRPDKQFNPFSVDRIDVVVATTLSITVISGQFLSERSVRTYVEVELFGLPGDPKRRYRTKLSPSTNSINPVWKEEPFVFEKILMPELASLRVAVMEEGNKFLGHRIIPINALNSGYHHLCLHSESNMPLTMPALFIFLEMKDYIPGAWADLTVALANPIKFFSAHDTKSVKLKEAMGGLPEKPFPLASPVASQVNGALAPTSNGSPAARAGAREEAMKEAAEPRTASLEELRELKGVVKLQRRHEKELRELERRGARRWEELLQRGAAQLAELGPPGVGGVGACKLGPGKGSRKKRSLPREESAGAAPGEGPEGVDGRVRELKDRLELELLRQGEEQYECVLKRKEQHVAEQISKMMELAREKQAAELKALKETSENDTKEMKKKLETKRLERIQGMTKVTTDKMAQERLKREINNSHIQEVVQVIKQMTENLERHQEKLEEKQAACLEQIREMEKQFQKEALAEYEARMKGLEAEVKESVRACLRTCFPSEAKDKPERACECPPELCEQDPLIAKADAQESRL

O=C(/C=C/c1ccccc1)NC(=O)Nc1cc(C(=O)N2CCNCC2)ccc1N1CCN(C(c2ccccc2)c2ccccc2)CC1 [Cpd 61, N-[2-[4-(diphenylmethyl)-1-piperazinyl]-5-(1-piperazinylcarbonyl)phenyl]-N′-[(2E)-1-oxo-3-phenyl-2-propenyl]-urea] and O=C(NCc1ccccc1)Nc1cc(C(=O)N2CCNCC2)ccc1N1CCN(C(c2ccccc2)c2ccccc2)CC1 [Cpd 39, N-[2-[4-(diphenylmethyl)-1-piperazinyl]-5-(1-piperazinylcarbonyl)phenyl]-N′-(phenylmethyl)urea] are within 1.5-fold of each other in IC50: 4.3 µM for the first, 4.2 µM for the second.

First: NC(=O)c1ccc(N2CCCN(C(c3ccncc3)c3ccc(F)cc3)CC2)c(NC(=O)Nc2ccccc2)c1 (centres unmarked) [Cpd 79, 4-[4-[(4-fluorophenyl)-4-pyridinylmethyl]hexahydro-1H-1,4-diazepin-1-yl]-3-[[(phenylamino)carbonyl]amino]-benzamide]
Second: NC(=O)c1ccc(N2CCN(C(c3ccncc3)c3ccc(F)cc3)CC2)c(NC(=O)Nc2ccccc2)c1 (centres unmarked) [Cpd 77, 4-[4-[(4-fluorophenyl)-4-pyridinylmethyl]-1-piperazinyl]-3-[[(phenylamino)carbonyl]amino]-benzamide]
The IC50 of the first is higher: over 10 µM for the first, about 10 µM for the second.

Going from O=C(Nc1ccccc1F)Nc1cc(C(=O)N2CCNCC2)ccc1N1CCN(C(c2ccccc2)c2ccccc2)CC1 [Cpd 57, N-[2-[4-(diphenylmethyl)-1-piperazinyl]-5-(1-piperazinylcarbonyl)phenyl]-N′-(2-fluorophenyl)urea] to COc1ccc(NC(=O)Nc2cc(C(=O)N3CCNCC3)ccc2N2CCN(C(c3ccccc3)c3ccccc3)CC2)cc1 [Cpd 43, N-[2-[4-(diphenylmethyl)-1-piperazinyl]-5-(1-piperazinylcarbonyl)phenyl]-N′-(4-methoxyphenyl)urea], the IC50 rises from 2.5 µM to 5.7 µM (2.3-fold). The first is the more potent here.

Compared with NC(=O)c1ccc(N2CCN(C(c3ccccc3)c3ccccc3)CC2)c(NC(=O)NC2CCCCC2)c1 [Cpd 10, 3-[[(cyclohexylamino)carbonyl]amino]-4-[4-(diphenylmethyl)-1-piperazinyl]-benzamide], NCCNC(=O)c1ccc(N2CCN(C(c3ccccc3)c3ccccc3)CC2)c(NC(=O)NC2CCCCC2)c1 [Cpd 27, N-(2-aminoethyl)-3-[[(cyclohexylamino)carbonyl]amino]-4-[4-(diphenylmethyl)-1-piperazinyl]-benzamide] is 5-fold lower in IC50: 14 µM for the first, 2.8 µM for the second. The second is the more potent here.

O=C(Nc1cc(C(=O)N2CCNCC2)ccc1N1CCN(C(c2ccc(F)cc2)c2ccc(F)cc2)CC1)NC1CCCCC1 [Cpd 47, N-[2-[4-[bis(4-fluorophenyl)methyl]-1-piperazinyl]-5-(1-piperazinylcarbonyl)phenyl]-N′-cyclohexylurea] and COc1ccc(NC(=O)Nc2cc(C(N)=O)ccc2N2CCN(C(c3ccc(F)cc3)c3ccc(F)cc3)CC2)c(OC)c1 [Cpd 18, 4-[4-[bis(4-fluorophenyl)methyl]-1-piperazinyl]-3-[[[(2,4-dimethoxyphenyl)amino]carbonyl]amino]-benzamide] are within 1.5-fold of each other in IC50: 4.2 µM for the first, 4.6 µM for the second.

First: NC(=O)c1ccc(N2CCN(C(c3ccc(F)cc3)c3ccc(F)cc3)CC2)c(NC(=S)Nc2ccccc2)c1 [Cpd 22, 4-[4-[bis(4-fluorophenyl)methyl]-1-piperazinyl]-3-[[(phenylamino)thioxomethyl]amino]-benzamide]
Second: Cc1cc(C)cc(NC(=O)Nc2cc(C(N)=O)ccc2N2CCN(C(c3ccccc3)c3ccccc3)CC2)c1 [Cpd 7, 3-[[[(3,5-dimethylphenyl)amino]carbonyl]amino]-4-[4-(diphenylmethyl)-1-piperazinyl]-benzamide]
The IC50 of the first is 4.4-fold lower: 1.2 µM for the first, 5.3 µM for the second.

Going from O=C(NC(=S)Nc1cc(C(=O)N2CCNCC2)ccc1N1CCN(C(c2ccccc2)c2ccccc2)CC1)c1ccc(Cl)cc1 [Cpd 67, N-(4-chlorobenzoyl)-N′-[2-[4-(diphenylmethyl)-1-piperazinyl]-5-(1-piperazinylcarbonyl)phenyl]-thiourea] to O=C(c1ccc(N2CCN(C(c3ccccc3)c3ccccc3)CC2)c(NC(=S)NCc2ccccc2)c1)N1CCNCC1 [Cpd 65, N-[2-[4-(diphenylmethyl)-1-piperazinyl]-5-(1-piperazinylcarbonyl)phenyl]-N′-(phenylmethyl)thiourea], the IC50 rises from 3.4 µM to 6.2 µM (1.8-fold). The first is the more potent here.
